Measured values as given in US20250163066A1, “PROTACs of MALT1” (TEGID THERAPEUTICS, INC., priority 2022, published 2025).

These molecules were tested against MALT1 (Homo sapiens (Human), UniProt Q9UDY8) (assay: MALT1 enzymatic activity inhibition (fluorescence, Ac-LRSR-AMC substrate)). Details: recombinant MALT1 1.5 ng/μl, Ac-LRSR-AMC 1 μM.
Type: biochemical
Experimental: Compound activity was determined using recombinant MALT1 protein (Creative Biomart, Cat #MALT1-28H) and Ac-LRSR-AMC Substrate in an in vitro enzymatic reaction. The enzymatic assay used to determine activity was a Fluorescence assay using a Microplate Reader ClarioStar Plus. The enzymatic reaction was carried out in 1× Assay Buffer (50 mM HEPES pH 7.2-7.4, 100 mM NaCl, 900 mM Sodium citrate, 10 mM DTT). The compounds were dispensed on a 384-well Diamond Well Plate (Axygen, Cat #P-384-120SQ-C—S) using the Biomek FX liquid handling system at 100× solutions of compounds in DMSO. 2.5×MALT1 mix (final concentration 1.5 ng/μl of MALT1) was prepared in 1× Assay Buffer and 8 μl of mixture per well were added into 384w white Reaction Plates with NBS (Corning, Cat #4513). 8 μl of 1× Assay Buffer were used for negative control. Plates were centrifuged for 1 min at 200 g. Next, the compounds were added to Reaction plates using Biomek station via following steps: 1 μl of 100× compounds (in DMSO) was mixed thoroughly with 19 μl of 1× Assay Buffer, then 4 μl of this mixture were added to Reaction plates with 8 μl of MALT1 mix. Plates were centrifuged for 1 min at 200 g and incubated for 10 minutes at rt. Next, 2.5× Ac-LRSR-AMC mix (final concentration 1 μM of Ac-LRSR-AMC) was prepared in 1× Assay Buffer and 8 μl of mixture per well were added to Reaction Plates using Biomek station. Plates were centrifuged for 1 min at 200 g, then the fluorescence was measured immediately using Microplate Reader. Plates were incubated for 30 minutes at 37° C., then for 30 minutes at rt. The fluorescence was measured after the whole incubation using Microplate Reader. The reaction signal was calculated as the subtraction of the first data set values from the second. The % inhibition was then used to calculate the IC50 values. The results of this assay are shown in the Table A. The values of EC50 shown as a letters A-E, where: A≤0.2 μM; 0.2 μM<B≤0.5 μM; 0.5 μM<C≤1 μM; 1<D≤5 μM; E >5.

Sequence of MALT1 (Q9UDY8 whole entry): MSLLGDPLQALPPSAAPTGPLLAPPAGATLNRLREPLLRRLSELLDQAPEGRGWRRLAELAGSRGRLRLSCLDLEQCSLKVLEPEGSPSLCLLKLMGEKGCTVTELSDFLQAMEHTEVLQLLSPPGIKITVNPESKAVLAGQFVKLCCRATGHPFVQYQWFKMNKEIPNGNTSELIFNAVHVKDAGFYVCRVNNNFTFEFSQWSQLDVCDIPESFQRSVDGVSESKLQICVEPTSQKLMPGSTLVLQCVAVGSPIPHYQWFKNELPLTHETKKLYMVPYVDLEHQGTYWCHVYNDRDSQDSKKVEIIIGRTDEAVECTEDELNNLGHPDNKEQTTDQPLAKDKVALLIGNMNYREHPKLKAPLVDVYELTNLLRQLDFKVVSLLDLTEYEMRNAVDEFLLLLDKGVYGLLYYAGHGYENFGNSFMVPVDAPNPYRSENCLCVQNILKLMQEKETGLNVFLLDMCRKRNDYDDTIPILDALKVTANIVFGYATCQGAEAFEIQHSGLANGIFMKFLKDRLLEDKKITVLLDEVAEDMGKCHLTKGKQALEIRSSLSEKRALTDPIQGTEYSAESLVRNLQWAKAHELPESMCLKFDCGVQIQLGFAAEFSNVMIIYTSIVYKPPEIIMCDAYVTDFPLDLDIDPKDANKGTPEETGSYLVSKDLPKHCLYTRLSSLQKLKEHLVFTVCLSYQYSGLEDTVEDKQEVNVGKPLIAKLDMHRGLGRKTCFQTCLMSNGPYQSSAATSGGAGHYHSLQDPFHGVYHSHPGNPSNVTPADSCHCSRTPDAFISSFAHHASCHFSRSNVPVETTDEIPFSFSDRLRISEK

| Compound | EC50 [µM] |
| --- | --- |
| Cc1cc(NC(=O)Nc2cnc3ccnn3c2C2CCCO2)cnc1N1CCN(C(=O)CCOCCN2CCN(c3ccc4c(c3)CN(C3CCC(=O)NC3=O)C4=O)CC2)CC1 (stereo not drawn) [Compound 35, 1-[6-[4-[3-[2-[4-[2-(2,6-dioxo-3-piperidyl)-1-oxo-isoindolin-5-yl]piperazin-1-yl]ethoxy]propanoyl]piperazin-1-yl]-5-methyl-3-pyridyl]-3-(7-tetrahydrofuran-2-ylpyrazolo[1,5-a]pyrimidin-6-yl)urea] | > 5 |
| Cc1cc(NC(=O)Nc2cnc3ccnn3c2C2CCCO2)cnc1NCCOCCOCCOCCC(=O)N1CCN(c2ccc3c(c2)CN(C2CCC(=O)NC2=O)C3=O)CC1 (stereo not drawn) [Compound 29, 1-[6-[2-[2-[2-[3-[4-[2-(2,6-dioxo-3-piperidyl)-1-oxo-isoindolin-5-yl]piperazin-1-yl]-3-oxo-propoxy]ethoxy]ethoxy]ethylamino]-5-methyl-3-pyridyl]-3-(7-tetrahydrofuran-2-ylpyrazolo[1,5-a]pyrimidin-6-yl)urea] | > 5 |
| O=C(CCOCCN1CCN(c2ccc3c(c2)CN(C2CCC(=O)NC2=O)C3=O)CC1)NCCOc1ncc(Cl)cc1NC(=O)Nc1cnc2ccnn2c1C1CCCO1 (stereo not drawn) [Compound 36, N-[2-[[5-chloro-3-[(7-tetrahydrofuran-2-ylpyrazolo[1,5-a]pyrimidin-6-yl)carbamoylamino]-2-pyridyl]oxy]ethyl]-3-[2-[4-[2-(2,6-dioxo-3-piperidyl)-1-oxo-isoindolin-5-yl]piperazin-1-yl]ethoxy]propanamide] | 0.5 to 1 |
| Cc1cc(NC(=O)Nc2cnc3ccnn3c2C2CCCO2)cnc1-n1cc(C(=O)NCCOCCOCCC(=O)N2CCN(c3ccc4c(c3)CN(C3CCC(=O)NC3=O)C4=O)CC2)cn1 (stereo not drawn) [Compound 33, N-[2-[2-[3-[4-[2-(2,6-dioxo-3-piperidyl)-1-oxo-isoindolin-5-yl]piperazin-1-yl]-3-oxo-propoxy]ethoxy]ethyl]-1-[3-methyl-5-[(7-tetrahydrofuran-2-ylpyrazolo[1,5-a]pyrimidin-6-yl)carbamoylamino]-2-pyridyl]pyrazole-4-carboxamide] | 1 to 5 |
| COc1cc(-c2c(NC(=O)Nc3cnc(-n4cc(C(=O)NCCOCCOCCC(=O)N5CCN(c6ccc7c(c6)CN(C6CCC(=O)NC6=O)C7=O)CC5)cn4)c(C)c3)cnc3ccnn23)cc(OC)c1OC (stereo not drawn) [Compound 28, N-[2-[2-[3-[4-[2-(2,6-dioxo-3-piperidyl)-1-oxo-isoindolin-5-yl]piperazin-1-yl]-3-oxo-propoxy]ethoxy]ethyl]-1-[3-methyl-5-[[7-(3,4,5-trimethoxyphenyl)pyrazolo[1,5-a]pyrimidin-6-yl]carbamoylamino]-2-pyridyl]pyrazole-4-carboxamide] | > 5 |
| Cc1cc(NC(=O)Nc2cnc3ccnn3c2C2CCCCC2)cnc1-c1noc(CCCC(=O)N2CCN(c3ccc4c(c3)CN(C3CCC(=O)NC3=O)C4=O)CC2)n1 (stereo not drawn) [Compound 126, 1-(7-cyclohexylpyrazolo[1,5-a]pyrimidin-6-yl)-3-[6-[5-[4-[4-[2-(2,6-dioxo-3-piperidyl)-1-oxo-isoindolin-5-yl]piperazin-1-yl]-4-oxo-butyl]-1,2,4-oxadiazol-3-yl]-5-methyl-3-pyridyl]urea] | 0.5 to 1 |
| O=C1CCC(N2Cc3cc(N4CCN(CCCCc5nc(-c6ncc(NC(=O)Nc7cnc8c(Cl)cnn8c7C7CCCC7)cc6Cl)no5)CC4)ccc3C2=O)C(=O)N1 (stereo not drawn) [Compound 22, N-(3-Chloro-7-cyclopentylpyrazolo[1,5-a]pyrimidin-6-yl)-N′-{5-chloro-6-[5-(4-{4-[2-(2,6-dioxopiperidin-3-yl)-1-oxo-2,3-dihydro-1H-isoindol-5-yl]piperazin-1-yl}butyl)-1,2,4-oxadiazol-3-yl]pyridin-3-yl}urea] | 1 to 5 |
| COc1cc(-c2c(NC(=O)Nc3cnc(NCCOCCOCCC(=O)N4CCN(c5ccc6c(c5)CN(C5CCC(=O)NC5=O)C6=O)CC4)c(C)c3)cnc3ccnn23)cc(OC)c1OC (stereo not drawn) [Compound 27, 1-[6-[2-[2-[3-[4-[2-(2,6-dioxo-3-piperidyl)-1-oxo-isoindolin-5-yl]piperazin-1-yl]-3-oxo-propoxy]ethoxy]ethylamino]-5-methyl-3-pyridyl]-3-[7-(3,4,5-trimethoxyphenyl)pyrazolo[1,5-a]pyrimidin-6-yl]urea] | > 5 |
| Cc1cc(-c2noc(CCCCC(=O)N3CCN(c4ccc5c(c4)CN(C4CCC(=O)NC4=O)C5=O)CC3)n2)ncc1NC(=O)Nc1cnc2ccnn2c1C1CCCC1 (stereo not drawn) [Compound 94, 1-(7-cyclopentylpyrazolo[1,5-a]pyrimidin-6-yl)-3-[6-[5-[5-[4-[2-(2,6-dioxo-3-piperidyl)-1-oxo-isoindolin-5-yl]piperazin-1-yl]-5-oxo-pentyl]-1,2,4-oxadiazol-3-yl]-4-methyl-3-pyridyl]urea] | > 5 |
| CC(C)c1c(NC(=O)Nc2cn(CCCCC(=O)N3CCN(c4ccc5c(c4)CN(C4CCC(=O)NC4=O)C5=O)CC3)nc2C(F)(F)F)cnc2ccnn12 (stereo not drawn) [Compound 157, 1-[1-[5-[4-[2-(2,6-dioxo-3-piperidyl)-1-oxo-isoindolin-5-yl]piperazin-1-yl]-5-oxo-pentyl]-3-(trifluoromethyl)pyrazol-4-yl]-3-(7-isopropylpyrazolo[1,5-a]pyrimidin-6-yl)urea] | > 5 |

The remaining lines, values ahead:

| EC50 [µM] | Compound |
| --- | --- |
| 0.2 to 0.5 | Cc1cc(NC(=O)Nc2cnc3ccnn3c2C2CCCC2)cnc1-c1noc(CCCCC(=O)Nc2ccc(C3CCC(=O)NC3=O)cc2)n1 (stereo not drawn) [Compound 101, 5-[3-[5-[(7-cyclopentylpyrazolo[1,5-a]pyrimidin-6-yl)carbamoylamino]-3-methyl-2-pyridyl]-1,2,4-oxadiazol-5-yl]-N-[4-(2,6-dioxo-3-piperidyl)phenyl]pentanamide] |
| ≤ 0.2 | CC(C)c1c(NC(=O)Nc2cnc(-c3noc(CCCC(=O)N4CCN(c5ccc6c(c5)CN(C5CCC(=O)NC5=O)C6=O)CC4)n3)c(Cl)c2)cnc2ccnn12 (stereo not drawn) [Compound 140, 1-[5-chloro-6-[5-[4-[4-[2-(2,6-dioxo-3-piperidyl)-1-oxo-isoindolin-5-yl]piperazin-1-yl]-4-oxo-butyl]-1,2,4-oxadiazol-3-yl]-3-pyridyl]-3-(7-isopropylpyrazolo[1,5-a]pyrimidin-6-yl)urea] |
| ≤ 0.2 | Cc1cc(NC(=O)Nc2cnc3ccnn3c2C2CCC2)cnc1-c1noc(CCCCCCN2CCN(c3ccc4c(c3)CN(C3CCC(=O)NC3=O)C4=O)CC2)n1 (stereo not drawn) [Compound 115, 1-(7-cyclobutylpyrazolo[1,5-a]pyrimidin-6-yl)-3-[6-[5-[6-[4-[2-(2,6-dioxo-3-piperidyl)-1-oxo-isoindolin-5-yl]piperazin-1-yl]hexyl]-1,2,4-oxadiazol-3-yl]-5-methyl-3-pyridyl]urea] |
| ≤ 0.2 | Cc1cc(NC(=O)Nc2cnc3ccnn3c2C2CCCC2)cnc1-c1noc(CCCCCCN2CCN(c3ccc4c(c3)CN(C3CCC(=O)NC3=O)C4=O)CC2)n1 (stereo not drawn) [Compound 68, 1-(7-cyclopentylpyrazolo[1,5-a]pyrimidin-6-yl)-3-[6-[5-[6-[4-[2-(2,6-dioxo-3-piperidyl)-1-oxo-isoindolin-5-yl]piperazin-1-yl]hexyl]-1,2,4-oxadiazol-3-yl]-5-methyl-3-pyridyl]urea] |
| ≤ 0.2 | O=C1CCC(N2Cc3cc(N4CCN(C(=O)CCCCCc5nc(-c6ncc(NC(=O)Nc7cnc8ccnn8c7C7CC7)cc6Cl)no5)CC4)ccc3C2=O)C(=O)N1 (stereo not drawn) [Compound 158, 1-[5-chloro-6-[5-[6-[4-[2-(2,6-dioxo-3-piperidyl)-1-oxo-isoindolin-5-yl]piperazin-1-yl]-6-oxo-hexyl]-1,2,4-oxadiazol-3-yl]-3-pyridyl]-3-(7-cyclopropylpyrazolo[1,5-a]pyrimidin-6-yl)urea] |
| ≤ 0.2 | CC(C)c1c(NC(=O)Nc2cnc(-c3noc(CCCCCC(=O)N4CCN(c5ccc6c(c5)CN(C5CCC(=O)NC5=O)C6=O)CC4)n3)c(C(F)(F)F)c2)cnc2ccnn12 (stereo not drawn) [Compound 162, 1-[6-[5-[6-[4-[2-(2,6-dioxo-3-piperidyl)-1-oxo-isoindolin-5-yl]piperazin-1-yl]-6-oxo-hexyl]-1,2,4-oxadiazol-3-yl]-5-(trifluoromethyl)-3-pyridyl]-3-(7-isopropylpyrazolo[1,5-a]pyrimidin-6-yl)urea] |
| ≤ 0.2 | Cc1cc(NC(=O)Nc2cnc3ccnn3c2C(C)C)cnc1-c1noc(CCCCCC(=O)N2CCN(c3ccc4c(c3)CN(C3CCC(=O)N(C)C3=O)C4=O)CC2)n1 (stereo not drawn) [Compound 146, 1-(7-isopropylpyrazolo[1,5-a]pyrimidin-6-yl)-3-[5-methyl-6-[5-[6-[4-[2-(1-methyl-2,6-dioxo-3-piperidyl)-1-oxo-isoindolin-5-yl]piperazin-1-yl]-6-oxo-hexyl]-1,2,4-oxadiazol-3-yl]-3-pyridyl]urea] |
| 0.2 to 0.5 | Cc1cc(NC(=O)Nc2cnc3ccnn3c2C(C)C)cnc1-c1nnc(CCCCC(=O)N2CCN(c3ccc4c(c3)CN(C3CCC(=O)NC3=O)C4=O)CC2)s1 (stereo not drawn) [Compound 154, 1-[6-[5-[5-[4-[2-(2,6-dioxo-3-piperidyl)-1-oxo-isoindolin-5-yl]piperazin-1-yl]-5-oxo-pentyl]-1,3,4-thiadiazol-2-yl]-5-methyl-3-pyridyl]-3-(7-isopropylpyrazolo[1,5-a]pyrimidin-6-yl)urea] |
